This note sets out measurements from US20200029558A1, “Biocidal Microcapsules for Biofouling Control” (Greenseal Research Ltd, priority 2016, published 2020).

Common to all, as to format: cell-based
The test system of assay [1] is Staphylococcus aureus (ATCC 25923). Kind of assay: Well diffusion antimicrobial bioassay of microcapsules. Particulars: wells approx. 5.0 mm, 37° C. 24 hours. As to the method: (§1) Bioassays were performed to assess the antimicrobial activity against Staphylococcus aureus (ATCC 25923) by the Well diffusion method, at different mediums (artificial sea water (Sera marine salt), DMSO and MilliQ water). Initially, the microorganisms were cultured on Muller-Hinton agar for bacteria Staphylococcus aureus. Then, 100 μL of a standardized microorganism suspension, corresponding to 0.5 McFarland, was used to inoculate a Petri dish of solid Mueller-Hinton medium. These suspensions were spread over the medium surface using a sterile swab. Subsequently, agar wells were made of approximately 5.0 mm in diameter with a Pasteur pipette. Then, 50 μL of each sample, negative control (DMSO) and positive control (Econea) for Gram positive bacteria (Staphylococcus aureus), were added on each of the wells. Plates were incubated at 37° C. for 24 hours. After this period, the diameters of the inhibition zones were measured and the results were expressed in millimeters (mm). The assay was performed under aseptic conditions and in triplicate [M. Pereira, D. Matias, F. Pereira, C. P. Reis, M. F. Simões, P. Rijo, Antimicrobial screening of Plectranthus madagascariensis and P. neochilus extracts, Biomedical and Biopharmaceutical Research, Vol. 12 (2015) 127-138]. Following the above described procedure, different mediums were used to assess the bioactivity of microcapsules, such as artificial sea water, MilliQ water and dimethyl sulfoxide (DMSO) (Table 1).
Following similar bioassays procedures as example 1, different mediums were used to assess the bioactivity of microcapsules, such as artificial sea water, MilliQ water and dimethyl sulfoxide (DMSO) (Table 3).

Assay [2] has as its system Staphylococcus aureus (ATCC25923). As to the kind of experiment: Antimicrobial activity of coating formulation films containing biocidal microcapsules. As to the method: as §1, with “Following the above described procedure, different mediums were used to assess the bioactivity of microcapsules, such as artificial sea water, MilliQ water and dimethyl sulfoxide (DMSO) (Table 1).” left out

Assay [3] has the same test system. Kind of assay: Leaching tests on coated specimens (adapted OECD 313-2007), leaching waters assessed by bioassay. Particulars: after 30 days of exposure in artificial sea water, 120 rpm. As to the method: as §1, with “The assay was performed under aseptic conditions and in triplicate [M. Pereira, D. Matias, F. Pereira, C. P. Reis, M. F. Simões, P. Rijo, Antimicrobial screening of Plectranthus madagascariensis and P. neochilus extracts, Biomedical and Biopharmaceutical Research, Vol. 12 (2015) 127-138]. Following the above described procedure, different mediums were used to assess the bioactivity of microcapsules, such as artificial sea water, MilliQ water and dimethyl sulfoxide (DMSO) (Table 1).” left out
Leaching of the biocide through the paint films of coated specimens containing the developed biocidal MCs was assessed by leaching tests, following an adapted procedure from the standard OECD 313-2007. […] Finally, the antimicrobial activity of the leaching waters was assessed by bioassays against microorganisms such as Staphylococcus aureus, following the same procedure as described in the previous examples.

Regarding `N#Cc1c(-c2ccc(Cl)cc2)[nH]c(C(F)(F)F)c1Br` [Econea biocide, 2-(p-chlorophenyl)-3-cyano-4-bromo-5-trifluoromethyl pyrrole], the Inhibition zones in assay [1] (medium DMSO) was determined as 19 mm; in assay [1] (medium MilliQ water) it was 23 mm; in assay [1] (medium artificial sea water), 20 mm. The “Inhibition zones of polyurethane based coating formulations” value was found to be 20 mm in assay [2] (medium DMSO) and 18 mm in assay [2] (medium artificial sea water). Besides, the “Inhibition zones of leaching waters of immersed coated specimens” value in assay [3] is 20 mm.
